Experimental data published in ChEMBL document CHEMBL5104090, “Recent advances in the medicinal chemistry of carbonic anhydrase inhibitors” (Eur J Med Chem, 2021).
Each block holds one compound with its values, some of them ahead of it.

What was measured:
[1] = test system: HT-1080; assay: cells; assay type: functional, cell-based; details: Homo sapiens, HT-1080, 48 h
Description: Cytotoxicity against human HT-1080 cells assessed as cell growth inhibition measured after 48 hrs by MTT assay

[2] = test system: SH-SY5Y; assay: cells; assay type: functional, cell-based; details: Homo sapiens, 48 h
Description: Cytotoxicity against human SH-SY5Y cells assessed as cell growth inhibition measured after 48 hrs by MTT assay

[3] = test system: MCF7; assay: cells; assay type: functional, cell-based; details: Homo sapiens, MCF7, 48 h
Description: Cytotoxicity against human MCF7 cells assessed as cell growth inhibition measured after 48 hrs by MTT assay

[4] = target: T1, Carbonic anhydrase 9 (Homo sapiens, UniProt Q16790)
[5] = target: T2, Carbonic anhydrase 12 (Homo sapiens, UniProt O43570)
[6] = target: T3, Carbonic anhydrase 1 (Homo sapiens, UniProt P00915)
Target sequence in this assay (P00915 2-261 limits assumed): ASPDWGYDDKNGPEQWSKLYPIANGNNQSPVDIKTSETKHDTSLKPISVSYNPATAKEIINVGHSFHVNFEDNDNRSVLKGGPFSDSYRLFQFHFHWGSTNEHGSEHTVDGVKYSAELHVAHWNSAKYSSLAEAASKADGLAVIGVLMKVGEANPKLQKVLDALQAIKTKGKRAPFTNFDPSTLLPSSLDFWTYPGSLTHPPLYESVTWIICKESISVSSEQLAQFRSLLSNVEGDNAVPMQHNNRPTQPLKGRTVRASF

[7] = target: T1, Carbonic anhydrase 9; remark: listed apart in the source
[8] = test system: Ca9-22; assay: cells; assay type: functional; details: Homo sapiens, time 48 hrs
Description: Cytotoxicity against human Ca9-22 cells assessed as cell growth inhibition measured after 48 hrs by MTT assay

[9] = test system: HSC-2; assay: cells; assay type: functional; details: Homo sapiens, time 48 hrs
Description: Cytotoxicity against human HSC-2 cells assessed as cell growth inhibition measured after 48 hrs by MTT assay

[10] = test system: HSC-3; assay: cells; assay type: functional; details: Homo sapiens, time 48 hrs
Description: Cytotoxicity against human HSC-3 cells assessed as cell growth inhibition measured after 48 hrs by MTT assay

[11] = test system: HSC-4; assay: cells; assay type: functional; details: Homo sapiens, time 48 hrs
Description: Cytotoxicity against human HSC-4 cells assessed as cell growth inhibition measured after 48 hrs by MTT assay

[12] = target: T4, Carbonic anhydrase 2 (Homo sapiens, UniProt P00918)
[13] = target: T3, Carbonic anhydrase 1; remark: listed apart in the source
Target sequence in this assay (P00915 whole entry): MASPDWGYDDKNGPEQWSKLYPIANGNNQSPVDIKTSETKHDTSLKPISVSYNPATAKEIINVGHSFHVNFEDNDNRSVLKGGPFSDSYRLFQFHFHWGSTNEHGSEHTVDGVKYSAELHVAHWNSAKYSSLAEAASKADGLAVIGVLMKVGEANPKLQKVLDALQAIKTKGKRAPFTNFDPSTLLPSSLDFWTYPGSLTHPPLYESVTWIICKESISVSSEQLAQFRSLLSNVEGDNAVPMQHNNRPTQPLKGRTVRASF

[14] = target: T4, Carbonic anhydrase 2; remark: listed apart in the source
[15] = target: T2, Carbonic anhydrase 12; details: time 6.0 hrs
[16] = target: T3, Carbonic anhydrase 1; remark: listed apart in the source
Target sequence in this assay (P00915 whole entry): as above

[17] = target: T2, Carbonic anhydrase 12; remark: listed apart in the source
[18] = target: T4, Carbonic anhydrase 2; remark: listed apart in the source
[19] = target: T4, Carbonic anhydrase 2; remark: listed apart in the source
[20] = target: T3, Carbonic anhydrase 1; remark: listed apart in the source
Target sequence in this assay (P00915 whole entry): as above

[21] = target: T4, Carbonic anhydrase 2; remark: listed apart in the source
[22] = target: T1, Carbonic anhydrase 9; remark: listed apart in the source
[23] = target: T2, Carbonic anhydrase 12; remark: listed apart in the source
[24] = target: Carbonic anhydrase 4 (Homo sapiens, UniProt P22748)
[25] = target: Carbonic anhydrase 7 (Homo sapiens, UniProt P43166)
Carbonic anhydrase 7, sequence (P43166 whole entry): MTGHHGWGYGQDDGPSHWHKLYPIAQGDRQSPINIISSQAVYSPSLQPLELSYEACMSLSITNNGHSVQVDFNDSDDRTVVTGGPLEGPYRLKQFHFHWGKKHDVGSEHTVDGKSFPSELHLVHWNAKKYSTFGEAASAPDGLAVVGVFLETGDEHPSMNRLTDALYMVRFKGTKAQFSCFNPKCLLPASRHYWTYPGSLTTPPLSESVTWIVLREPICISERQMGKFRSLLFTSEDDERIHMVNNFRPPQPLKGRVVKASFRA

T2 sequence (O43570 whole entry): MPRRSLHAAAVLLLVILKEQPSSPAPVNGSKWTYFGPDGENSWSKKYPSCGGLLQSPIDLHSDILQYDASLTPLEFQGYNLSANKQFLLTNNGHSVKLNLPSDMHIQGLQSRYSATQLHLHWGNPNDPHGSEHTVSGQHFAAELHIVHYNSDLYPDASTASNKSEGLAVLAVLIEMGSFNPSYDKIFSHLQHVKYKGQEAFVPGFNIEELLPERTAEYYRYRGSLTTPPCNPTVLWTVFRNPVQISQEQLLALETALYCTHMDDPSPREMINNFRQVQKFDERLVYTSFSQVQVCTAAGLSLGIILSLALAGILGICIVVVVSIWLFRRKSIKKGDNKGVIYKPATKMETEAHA
Carbonic anhydrase 4, sequence (P22748 whole entry): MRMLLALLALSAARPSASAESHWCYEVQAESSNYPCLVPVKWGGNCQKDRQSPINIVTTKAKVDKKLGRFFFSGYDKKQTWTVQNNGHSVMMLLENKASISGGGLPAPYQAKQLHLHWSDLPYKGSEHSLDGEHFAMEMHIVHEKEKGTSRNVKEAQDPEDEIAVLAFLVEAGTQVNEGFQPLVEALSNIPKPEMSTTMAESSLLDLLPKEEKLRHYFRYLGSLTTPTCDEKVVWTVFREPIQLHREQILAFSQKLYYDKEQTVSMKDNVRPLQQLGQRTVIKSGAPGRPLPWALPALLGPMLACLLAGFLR

Compound: O=S1(=O)C=Cc2cc(-c3nnnn3-c3ccccc3)ccc2O1
IC50 [1]: 7.9 µM
IC50 [2]: 18.4 µM
IC50 [3]: 1800 nM
Ki [4]: 6.9 nM
Ki [5]: 5.4 nM

Compound: COc1ccc(C2CC(c3ccc(F)cc3)=NN2c2ccc(S(N)(=O)=O)cc2)cc1OC (configuration not stated)
CC50 [8]: 15 µM
CC50 [9]: 15 µM
CC50 [10]: 15 µM
CC50 [11]: 15 µM

Compound: CS(=O)(=O)Cc1cc(O)c(O)c(Br)c1Br
Ki [12]: 42.8 nM

Compound: O=C1/C(=C\c2ccc(O)c(CN3CCN(c4ccccc4F)CC3)c2)Cc2ccccc21
Ki [12]: 51.1 nM

Compound: Cc1ccc(C)c(-n2nc(-c3ccccc3)c(/N=N/c3ccc(Br)cc3)c2-c2ccccc2)c1
Ki [13]: 1.06 nM
Ki [14]: 0.68 nM

Compound: O=[N+]([O-])c1ccc2c(c1)C=CCS(=O)(=O)O2
Kis [15]: 0.64 µM

Compound: COc1ccc(/C=C2/SC(=O)N(CC(=O)O)C2=O)cc1
Ki [16]: > 100 µM
Ki [4]: 3100 nM
Kis [17]: 0.3 µM

Compound: COc1ccc(C2CC(c3ccc(Cl)cc3)=NN2c2ccc(S(N)(=O)=O)cc2)cc1OC (configuration not stated)
CC50 [8]: 15 µM
CC50 [9]: 15 µM
CC50 [10]: 15 µM
CC50 [11]: 15 µM

Compound: Brc1ccc(/N=N/c2c(-c3ccccc3)nn(-c3ccc(Br)cc3)c2-c2ccccc2)cc1
Ki [13]: 1.06 nM
Ki [14]: 0.68 nM

Compound: NS(=O)(=O)c1ccc(C(=O)N[C@@H]2O[C@H](CO)[C@H](O)[C@H](O)[C@H]2O)cc1
Ki [18]: 9 pM

Compound: O=c1c2ccccc2nc(SCCN2CCCCC2)n1CCc1ccccc1
Ki [20]: 0.229 µM
Ki [21]: 14.2 nM
Ki [22]: 19.3 nM
Ki [23]: 17.2 nM

Compound: Cc1ccc(-n2nc(-c3ccccc3)c(/N=N/c3ccc(Br)cc3)c2-c2ccccc2)cc1C
Ki [13]: 1.06 nM
Ki [14]: 0.68 nM

Compound: O=C(O)CN1C(=O)S/C(=C/c2ccc(Cl)cc2)C1=O
Ki [16]: > 100 µM
Ki [4]: 3100 nM
Kis [17]: 0.3 µM

Compound: O=C(O)CN1C(=O)S/C(=C/c2ccccc2Cl)C1=O
Ki [16]: > 100 µM
Kis [17]: 0.3 µM

Compound: NS(=O)(=O)c1ccc(C(=O)N[C@@H]2O[C@H](CO)[C@@H](O)[C@H](O)[C@H]2O)cc1
Ki [18]: 9 pM

Compound: COc1ccccc1N1CCN(Cc2cc(/C=C3/Cc4ccccc4C3=O)ccc2O)CC1
Ki [12]: 51.1 nM

Compound: Brc1ccc(/N=N/c2c(-c3ccccc3)nn(-c3ccccc3)c2-c2ccccc2)cc1
Ki [13]: 1.06 nM
Ki [14]: 0.68 nM

Compound: COc1cc([SeH])cc(OC)c1OC
Ki [20]: > 50 µM
Ki [21]: > 50000 nM
Ki [22]: 180 nM
Ki [25]: > 50 µM

Compound: Cc1ccc(/C=C2/SC(=O)N(CC(=O)O)C2=O)cc1
Ki [16]: > 100 µM
Ki [4]: > 100000 nM
Kis [17]: 0.3 µM

Compound: COc1ccc(C2CC(c3ccc(Cl)cc3)=NN2c2ccc(S(N)(=O)=O)cc2)c(OC)c1 (configuration not stated)
CC50 [8]: 15 µM
CC50 [9]: 15 µM
CC50 [10]: 15 µM
CC50 [11]: 15 µM

Compound: O=C1/C(=C\c2ccc(O)c(CN3CCN(c4ccc(F)cc4)CC3)c2)Cc2ccccc21
Ki [12]: 51.1 nM

Compound: CCn1nc(-c2ccccc2)c(/N=N/c2ccc(Br)cc2)c1-c1ccccc1
Ki [13]: 1.06 nM
Ki [14]: 0.68 nM

Compound: COc1ccc(C2CC(c3ccccc3)=NN2c2ccc(S(N)(=O)=O)cc2)c(OC)c1 (configuration not stated)
CC50 [8]: 15 µM
CC50 [9]: 15 µM
CC50 [10]: 15 µM
CC50 [11]: 15 µM

Compound: Cn1nc(-c2ccccc2)c(/N=N/c2ccc(Br)cc2)c1-c1ccccc1
Ki [13]: 1.06 nM
Ki [14]: 0.68 nM

Compound: NS(=O)(=O)c1ccc(C(=O)NN2C(=O)c3nccnc3C2=O)cc1
Kis [6]: 84.3 nM

Compound: O=S1(=O)C=Cc2cc(-c3nnnn3-c3ccc(F)c(Cl)c3)ccc2O1
IC50 [1]: 7.9 µM
IC50 [2]: 18.4 µM
IC50 [3]: 1800 nM

Compound: Nc1ccc2c(c1)C=CCS(=O)(=O)O2
Kis [15]: 0.64 µM

Compound: CS(=O)(=O)Cc1c(Br)c(O)c(O)c(Br)c1Br
Ki [12]: 42.8 nM

Compound: NS(=O)(=O)c1ccc(C(=O)NN2C(=O)C3CC=CCC3C2=O)cc1 (configuration not stated)
Kis [6]: 84.3 nM

Compound: COc1ccc(C2CC(c3ccc(Br)cc3)=NN2c2ccc(S(N)(=O)=O)cc2)c(OC)c1 (configuration not stated)
CC50 [8]: 15 µM
CC50 [9]: 15 µM
CC50 [10]: 15 µM
CC50 [11]: 15 µM

Compound: O=S1(=O)CC=Cc2cc(-n3cc(-c4ccc(C(F)(F)F)cc4)nn3)ccc2O1
Kis [15]: 0.64 µM

Compound: O=[N+]([O-])c1ccccc1-n1nc(-c2ccccc2)c(/N=N/c2ccc(Br)cc2)c1-c1ccccc1
Ki [13]: 1.06 nM
Ki [14]: 0.68 nM

Compound: NS(=O)(=O)c1ccc(C(=O)NN2C(=O)c3c(Cl)c(Cl)c(Cl)c(Cl)c3C2=O)cc1
Kis [7]: 3 nM

Compound: COc1cccc(/C=C2/SC(=O)N(CC(=O)O)C2=O)c1
Ki [16]: > 100 µM
Ki [4]: > 100000 nM
Kis [17]: 0.3 µM

Compound: O=S1(=O)C=Cc2cc(-n3cc(-c4ccc(Cl)cc4)nn3)ccc2O1
IC50 [1]: 7.9 µM
IC50 [2]: 18.4 µM
IC50 [3]: 1800 nM
Ki [4]: 6.9 nM
Ki [5]: 5.4 nM

Compound: O=C(O)CN1C(=O)S/C(=C/c2ccccc2)C1=O
Ki [16]: > 100 µM
Kis [17]: 0.3 µM

Compound: COc1ccc(C2CC(c3ccc(F)cc3)=NN2c2ccc(S(N)(=O)=O)cc2)c(OC)c1 (configuration not stated)
CC50 [8]: 15 µM
CC50 [9]: 15 µM
CC50 [10]: 15 µM
CC50 [11]: 15 µM

Compound: COc1ccc(C2CC(c3ccccc3)=NN2c2ccc(S(N)(=O)=O)cc2)cc1OC (configuration not stated)
CC50 [8]: 15 µM
CC50 [9]: 15 µM
CC50 [10]: 15 µM
CC50 [11]: 15 µM

Compound: O=C(O)CN1C(=O)S/C(=C/c2ccc(Br)cc2)C1=O
Ki [16]: > 100 µM
Kis [17]: 0.3 µM

Other lines, results leading:

Kis [6]: 84.3 nM
Kis [7]: 3 nM
Compound: CC(C)(C)c1ccc2c(c1)C(=O)N(NC(=O)c1ccc(S(N)(=O)=O)cc1)C2=O

Ki [13]: 1.06 nM
Ki [14]: 0.68 nM
Compound: Brc1ccc(NN=C2C(c3ccccc3)=NN=C2c2ccccc2)cc1

Ki [19]: 3 nM
Ki [4]: 16.4 nM
Ki [5]: 34.3 nM
Compound: NS(=O)(=O)c1ccc(NCC(=O)N/N=C2\C(=O)N(Cc3ccccc3)c3ccccc32)cc1

Ki [21]: 25.4 nM
Compound: NS(=O)(=O)c1ccc(CCn2c(SCC(=O)Nc3ccc(Cl)cc3)nc3ccccc3c2=O)cc1

Ki [20]: > 10 µM
Ki [22]: 0.21 nM
Ki [24]: 6.5 nM
Compound: NS(=O)(=O)c1ccc(N/C=C/C(=O)c2ccc([N+](=O)[O-])cc2)cc1

Ki [12]: 51.1 nM
Compound: O=C1/C(=C\c2ccc(O)c(CN3CCN(Cc4ccccc4)CC3)c2)Cc2ccccc21

Ki [20]: > 10 µM
Ki [21]: 0.48 nM
Ki [22]: 0.21 nM
Ki [24]: 6.5 nM
Compound: NS(=O)(=O)c1ccc(N/C=C/C(=O)c2ccc3ccccc3c2)cc1

Ki [12]: 51.1 nM
Compound: O=C1/C(=C\c2ccc(O)c(CN3CCN(c4ccccc4)CC3)c2)Cc2ccccc21

Ki [20]: 8.5 µM
Ki [21]: 0.48 nM
Ki [22]: 0.21 nM
Ki [24]: 6.5 nM
Compound: NS(=O)(=O)c1ccc(N/C=C/C(=O)c2ccc(Br)cc2)cc1

Ki [19]: 3 nM
Ki [4]: 13.9 nM
Ki [5]: 34.3 nM
Compound: NS(=O)(=O)c1ccc(N=C2C(=O)Nc3ccccc32)cc1

Kis [7]: 3 nM
Compound: NS(=O)(=O)c1ccc(C(=O)NN2C(=O)c3cc(Cl)c(Cl)cc3C2=O)cc1

Ki [20]: 9.3 µM
Ki [21]: 0.48 nM
Ki [22]: 0.21 nM
Ki [24]: 6.5 nM
Compound: NS(=O)(=O)c1ccc(N/C=C/C(=O)c2ccc(F)cc2)cc1

Kis [7]: 3 nM
Compound: NS(=O)(=O)c1ccc(C(=O)NN2C(=O)c3cccc4cc([N+](=O)[O-])cc(c34)C2=O)cc1

Kis [7]: 3 nM
Compound: NS(=O)(=O)c1ccc(C(=O)NN2C(=O)c3ccccc3C2=O)cc1

Kis [6]: 84.3 nM
Kis [7]: 3 nM
Compound: Cc1ccc2c(c1)C(=O)N(NC(=O)c1ccc(S(N)(=O)=O)cc1)C2=O

Kis [7]: 3 nM
Compound: NS(=O)(=O)c1ccc(C(=O)NN2C(=O)c3cccc4cccc(c34)C2=O)cc1

Ki [19]: 6.5 nM
Ki [16]: 0.0902 µM
Ki [4]: 21.4 nM
Ki [5]: 34.3 nM
Compound: NS(=O)(=O)c1ccc(N/N=C2\C(=O)Nc3ccccc32)cc1
